Source: patent publication US11414395B2, “Heterocyclic compounds as modulators of mGluR7” (PRAGMA Therapeutics, priority 2017, dated 2022)

Molecular target: human mGluR7 (Homo sapiens (Human), UniProt Q14831)
Test: Inositol monophosphate production assay (IP1 assay), inhibition of L-AP4 response
Format: cell-based
Settings: mean IC50 from at least two independent experiments; HEK293 cells transiently transfected with mGluR7, Gqtop and EAAC1; IP1 production vs EC80 L-AP4
Excerpt: Inositol Monophosphate Production Assay (IP1 Assay):
HEK293 cells were transiently transfected with mGluR7 by electroporation and seeded in a poly-ornithine coated 96-well plate at the density of 150 000 cells/well. To allow the monitoring of receptor activity through measurements of inositol monophosphate (IP1) production, mGluR7 was transfected with a chimeric Gq/Gi protein (Gqtop). and was also co-transfected with EAAC1, a glutamate transporter, to avoid influence of extracellular glutamate. Cells were cultured in Dulbecco's Modified Eagle Medium (DMEM, Invitrogen, Cergy Pontoise, France), supplemented with 10% of Fetal Bovine Serum (FBS). Medium was changed by Glutamax™ (Invitrogen, Cergy Pontoise, France) to reduce extracellular glutamate concentration 3 hours before stimulation
IP1 production was determined using the IP-One HTRF kit (CisBio Bioassays), a competitive immunoassay using cryptate-labeled anti-IP1 antibody and d2-labeled IP, according to the manufacturer's recommendations. All points were realized in triplicate.
Data were analyzed with Prism 6 software (GraphPadSoftware, San Diego, Calif.). Typically, in each experiment, a four-parameter concentration-response curve equation was used to fit data and potency (IC50) is estimated as logarithms (log IC50). Data were calculated as % of the control mGluR7 agonist L-AP4 response, defined as the response that is generated upon addition of an EC80-equivalent concentration of L-AP4.
The Table 2 below represents the mean IC50 obtained from at least two independent experiments.

Sequence of human mGluR7 (Q14831 35-915): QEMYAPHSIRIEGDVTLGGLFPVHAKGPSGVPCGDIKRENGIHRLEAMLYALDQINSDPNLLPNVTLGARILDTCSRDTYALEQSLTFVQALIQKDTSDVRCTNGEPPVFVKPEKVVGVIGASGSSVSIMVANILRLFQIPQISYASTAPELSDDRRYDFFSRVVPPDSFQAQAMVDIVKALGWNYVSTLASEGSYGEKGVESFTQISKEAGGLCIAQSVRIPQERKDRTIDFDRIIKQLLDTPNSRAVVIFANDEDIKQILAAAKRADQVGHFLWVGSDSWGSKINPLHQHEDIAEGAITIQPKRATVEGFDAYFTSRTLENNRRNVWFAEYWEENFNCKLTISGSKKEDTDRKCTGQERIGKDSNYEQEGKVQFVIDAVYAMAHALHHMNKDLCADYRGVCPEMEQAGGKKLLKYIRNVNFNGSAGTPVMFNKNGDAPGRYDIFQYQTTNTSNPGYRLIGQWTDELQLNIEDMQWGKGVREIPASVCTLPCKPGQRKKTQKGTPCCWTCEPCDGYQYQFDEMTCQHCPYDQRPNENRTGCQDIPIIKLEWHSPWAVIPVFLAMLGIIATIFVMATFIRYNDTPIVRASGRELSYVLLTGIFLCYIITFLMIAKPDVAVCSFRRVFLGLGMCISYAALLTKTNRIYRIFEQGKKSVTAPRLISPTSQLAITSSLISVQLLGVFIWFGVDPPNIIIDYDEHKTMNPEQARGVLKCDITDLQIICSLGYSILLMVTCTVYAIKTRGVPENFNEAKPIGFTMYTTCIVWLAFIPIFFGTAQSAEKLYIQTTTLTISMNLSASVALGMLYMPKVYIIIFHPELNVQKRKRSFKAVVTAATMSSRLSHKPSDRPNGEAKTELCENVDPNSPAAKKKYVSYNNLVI

SMILES: COc1ccnc(-n2ncc3c(c2=O)CCC(c2ccc(C)cc2C)C3)c1 (stereo not drawn) [Example 15, 6-(2,4-dimethylphenyl)-2-(4-methoxypyridin-2-yl)-5,6,7,8-tetrahydrophthalazin-1(2H)-one]
- IC50: < 500 nM

SMILES: COc1cccc(C2CCc3c(cnn(-c4ncc(C)cn4)c3=O)C2)c1Cl (stereo not drawn) [Example 94, 6-(2-chloro-3-methoxyphenyl)-2-(5-methylpyrimidin-2-yl)-5,6,7,8-tetrahydrophthalazin-1(2H)-one]
- IC50: < 500 nM

SMILES: O=c1c2c(cnn1-c1ncccn1)CC(c1cccc3c1ccn3C1CC1)CC2 (single isomer, unassigned; (+)) [Example 138, (+)-6-(1-cyclopropyl-1H-indol-4-yl)-2-(pyrimidin-2-yl)-5,6,7,8-tetrahydrophthalazin-1(2H)-one]
- IC50: 500 to 1000 nM

SMILES: O=c1c2c(cnn1-c1ncccn1)CC(c1cccc(OC3CCCC3)c1)CC2 (stereo not drawn) [Example 86, 6-(3-(cyclopentyloxy)phenyl)-2-(pyrimidin-2-yl)-5,6,7,8-tetrahydrophthalazin-1(2H)-one]
- IC50: 500 to 1000 nM

SMILES: Cc1ccc(C2CCc3c(cnn(-c4cc(Cl)ccn4)c3=O)C2)c(C)c1 (stereo not drawn) [Example 7, 2-(4-chloropyridin-2-yl)-6-(2,4-dimethylphenyl)-5,6,7,8-tetrahydrophthalazin-1(2H)-one]
- IC50: < 500 nM

SMILES: Cc1ccc(C2CCc3c(cnn(-c4cc(O)ccn4)c3=O)C2)c(C)c1 (stereo not drawn) [Example 26, 6-(2,4-dimethylphenyl)-2-(4-hydroxypyridin-2-yl)-5,6,7,8-tetrahydrophthalazin-1(2H)-one]
- IC50: < 500 nM

SMILES: COc1cnc(-n2ncc3c(c2=O)CCC(c2cc(OC)ccc2C)C3)nc1 (stereo not drawn) [Example 48, 6-(5-methoxy-2-methylphenyl)-2-(5-methoxypyrimidin-2-yl)-5,6,7,8-tetrahydrophthalazin-1(2H)-one]
- IC50: 500 to 1000 nM

SMILES: Cc1ccc(C2CCc3c(cnn(-c4cn(C)cn4)c3=O)C2)c(C)c1 (stereo not drawn) [Example 34, 6-(2,4-dimethylphenyl)-2-(1-methyl-1H-imidazol-4-yl)-5,6,7,8-tetrahydrophthalazin-1(2H)-one]
- IC50: 1000 to 30000 nM

SMILES: Cc1ccc(C2CCc3c(cnn(-c4ccc(Cl)cn4)c3=O)C2)c(C)c1 (stereo not drawn) [Example 6, 6-(2,4-dimethylphenyl)-2-(5-chlororopyridin-2-yl)-5,6,7,8-tetrahydro-phthalazin-1(2H)-one]
- IC50: < 500 nM

SMILES: COc1ccc(C)c(C2CCc3c(cnn(-c4ncccn4)c3=O)C2)c1 (stereo not drawn) [Example 80, 6-(5-methoxy-2-methylphenyl)-2-(pyrimidin-2-yl)-5,6,7,8-tetrahydrophthalazin-1(2H)-one]
- IC50: < 500 nM

SMILES: COc1cccc(C2CCc3c(cnn(-c4ncc(Cl)cn4)c3=O)C2)c1C (stereo not drawn) [Example 43, 2-(5-chloropyrimidin-2-yl)-6-(3-methoxy-2-methylphenyl)-5,6,7,8-tetrahydrophthalazin-1(2H)-one]
- IC50: < 500 nM

SMILES: Cc1ccc(C2CCc3c(cnn(-c4ncc(CN5CCOCC5)cn4)c3=O)C2)c(C)c1 (stereo not drawn) [Example 57, 6-(2,4-dimethylphenyl)-2-(5-(morpholinomethyl)pyrimidin-2-yl)-5,6,7,8-tetrahydrophthalazin-1(2H)-one]
- IC50: < 500 nM

SMILES: COc1ccc(C)c(C2CCc3c(cnn(-c4ncc(Cl)cn4)c3=O)C2)c1 (stereo not drawn) [Example 49, 2-(5-chloropyrimidin-2-yl)-6-(5-methoxy-2-methylphenyl)-5,6,7,8-tetrahydrophthalazin-1(2H)-one]
- IC50: < 500 nM

SMILES: COc1cccc(C2CCc3c(cnn(-c4ncccn4)c3=O)C2)c1C (stereo not drawn) [Example 40, 6-(3-methoxy-2-methylphenyl)-2-(pyrimidin-2-yl)-5,6,7,8-tetrahydrophthalazin-1(2H)-one]
- IC50: < 500 nM

SMILES: O=c1c2c(cnn1-c1ccccn1)CC(c1cccc(OC3CC3)c1)CC2 (stereo not drawn) [Example 66, 6-(3-cyclopropoxyphenyl)-2-(pyridin-2-yl)-5,6,7,8-tetrahydrophthalazin-1(2H)-one]
- IC50: < 500 nM
